Results from US20240139142A1, “METHOD FOR PREVENTING OR TREATING LIVER DISEASE” (priority 2022, published 2024).
Where two headings read alike, the source gives them in different places.

Experiments:
[1] = system: liver hepatocellular carcinoma cell line SNU-449; assay: MTS analysis, growth inhibition (GI50); type: cell-based; details: for GI50: Homo sapiens
[2] = system: liver hepatocellular carcinoma cell line Mahlavu; assay: MTS analysis, growth inhibition (GI50); type: cell-based; details: read-out: GI50, Mahlavu liver hepatocellular carcinoma cell line
[3] = system: SNU-449 liver hepatocellular carcinoma cell line; assay: Western blot of apoptosis markers (cleaved caspase 8, cleaved PARP); type: cell-based; details: 0.3 μM, 0, 24, 48 and 72 hours
Method: SNU-449 liver hepatocellular carcinoma cell line was treated by 0.3 μM isothiocyanate structural modified compounds P1130 and PCH1152, and natural isothiocyanate compound PEITC, and the control group was treated by DSMO. After extracting the proteins in the cells at different time points, such as 0, 24, 48 and 72 hours, analysis and comparison were performed by using western blot. […] The results represent that the two structural modified compounds described above effectively promoted the apoptosis of the liver hepatocellular carcinoma cells (FIG. 1).

[4] = system: wild-type liver hepatocellular carcinoma cell line SNU-499; assay: MTS assay cell viability IC50; type: cell-based
[5] = system: Sorafenib-drug resistance-liver hepatocellular carcinoma cell line Hep3B; assay: MTS assay cell viability IC50; type: cell-based; details: Homo sapiens
Method: (§1) In order to look for the biomarkers of drug resistance for liver hepatocellular carcinoma, liver hepatocellular carcinoma cell line Hep3B and SNU-449 were continually cultured in an environment with Sorafenib, and the concentration of Sorafenib was increased gradually. Specifically, broth containing 3.5 μM to 10.8 μM Sorafenib was used as a starting concentration (compared to the IC50 of the cell), and the concentration increased 0.5 μM every week until the Sorafenib-drug resistance-liver hepatocellular carcinoma cell line was established. […] With the same experimental procedures as described above, the Sorafenib-drug resistance-cell line was also cultured in a cell broth containing Regorafenib, and the cell viability was tested by MTS assay.

[6] = system: Sorafenib-drug resistance-liver hepatocellular carcinoma cell line SNU-499; assay: MTS assay cell viability IC50; type: cell-based
Method: as §1

[7] = system: wild-type liver hepatocellular carcinoma cell line Hep3B; assay: MTS assay cell viability IC50; type: cell-based; details: Homo sapiens
Method: as §1

[8] = system: liver hepatocellular carcinoma cell line SNU-449; assay: MTS assay cell growth, selectivity test; type: cell-based; details: SNU-449 vs THLE-2, MTS assay
[9] = system: cancer cells; details: background statement; cited from earlier work
[10] = system: Hepatitis B virus-induced ROS in Huh-7 cells; assay: Removal of HBV-induced ROS, DHE fluorescence; type: cell-based, human; details: Huh-7 transfected with pGEM C12, 5 μM PCH1152, 10 μM NAC
Method: To examine the effect of PCH1152, NAC or the combination thereof on removing HBV-induced ROS, the Huh-7 cells were remained untreated, or treated with 5 μM PCH1152, 10 μM NAC or 5 μM PCH 1152 plus 10 μM NAC. The ROS was examined by DHE fluorescence, and the difference between each group was compared by Tukey's Multiple Comparison Test.

[11] = system: Mahlavu liver hepatocellular carcinoma cell line; assay: Expression of ABCC2, Twist and Mcl-1 after treatment; type: cell-based; details: 2.5 μM, 64 hours
Source text: (§2) The process of trans-differentiating epithelial cells into motile mesenchymal cells is called epithelial-mesenchymal transition (EMT). EMT is indispensable in development, wound healing and stem cell behavior, and may induce fibrosis and carcinogenesis pathologically. In addition, EMT plays an important role in liver fibrosis, liver cirrhosis and liver hepatocellular carcinoma. […] Moreover, EMT may increase the anti-apoptosis effect, which will result in the development of drug resistance in cancer treatment, and induce the development of stemness of the cancer cells, as well as increase the number of cancer stem cells. The cancer stem cell is one of the important factors in the progression, recurrence, metastasis and drug resistance of the cancer. There is an evidence that in the samples of the liver hepatocellular carcinoma patients with poor prognosis, the overexpressions of Twist and Snail were observed. […] The results above represent that isothiocyanate structural modified compound of the present disclosure may prevent liver carcinogenesis and the growth, invasion, metastasis, progression and recurrence of liver hepatocellular carcinoma via inhibiting epithelial-mesenchymal transition, anti-apoptosis and/or inhibiting drug resistance.

[12] = system: SNU-449 liver hepatocellular carcinoma cell line; assay: as above; type: cell-based; details: 2.5 μM, 64 hours
Source text: as §2

[13] = system: SNU-449 liver hepatocellular carcinoma cell line; assay: Western blot, apoptosis and ABCC2/Mcl-1/Twist expression; type: cell-based; details: low concentration
[14] = system: human normal liver cell line THLE-2; assay: as above; type: cell-based; details: low concentration
[15] = system: liver hepatocellular carcinoma cell line with Nexavar drug resistance; assay: Protein expression and apoptosis in drug-resistant cell line; type: cell-based
Source text: WT: wild-type liver hepatocellular carcinoma cell line. R: Nexavar-drug resistance-liver hepatocellular carcinoma cell line.
After treating liver hepatocellular carcinoma cell line with Nexavar drug resistance by PCH1130 or PCH1152, the expressions of molecules such as USP22, ABCC1, ABCC2 and Twist in liver hepatocellular carcinoma may be decreased, and the expressions of cleaved Caspase-8 and PARP may be increased, which induced the apoptosis of liver hepatocellular carcinoma cells.

[16] = Safety test, median lethal dose (LD50), intravenous injection; type: in vivo; details: in vivo, mouse
Method: (§3) The mouse xenograft model of liver hepatocellular carcinoma was administered with different concentrations of PCH1152 or P1130 via intravenous injection, and the median lethal dose (LD50) was calculated by the number of death and dosage.

[17] = system: mouse xenograft model of liver hepatocellular carcinoma; assay: as above; type: in vivo
Method: as §3

[18] = SNU-449, MTS analysis, read-out: GI50, SNU-449 liver hepatocellular carcinoma cell line
[19] = read-out: The IC50 of Regorafenib, wild-type liver hepatocellular carcinoma cell line
[20] = read-out: The IC50 of Sorafenib, wild-type liver hepatocellular carcinoma cell line

Q: What does the source list for `S=C=NCCc1ccccc1` [PEITC, phenylethyl isothiocyanate, reference compound]?
A: GI50 [1, 18]: 7.58 µM; GI50 ([2]; MTS analysis): 9.59 µM; expression levels of cleaved caspase 8 and cleaved PARP [3]: only slightly increased

Q: With `CNC(=O)c1cc(Oc2ccc(NC(=O)Nc3ccc(Cl)c(C(F)(F)F)c3)c(F)c2)ccn1` [Regorafenib] as the compound, how does the GI50 [1, 18] read?
A: The GI50 was 4.54 µM.

Q: What about the GI50 ([2]; MTS analysis) of the same compound?
A: Its GI50 is 5 µM.

Q: And the IC50 [4, 19]?
A: The IC50 was 3.66 µM.

Q: What about the IC50 ([5]; Sorafenib-resistant, read-out: The IC50 of Regorafenib, drug resistance-liver hepatocellular carcinoma cell line) of the same compound?
A: Its IC50 is 8.33 µM.

Q: What about the IC50 ([6]; SNU-499, Sorafenib-resistant, read-out: The IC50 of Regorafenib, drug resistance-liver hepatocellular carcinoma cell line) of the same compound?
A: Its IC50 is 14.5 µM.

Q: And the IC50 [7, 19]?
A: Its IC50 is 4.28 µM.

Q: With `COc1cccc2c1C(=O)c1c(O)c3c(c(O)c1C2=O)C[C@@](O)(C(=O)CO)C[C@@H]3O[C@H]1C[C@H](N)[C@H](O)[C@H](C)O1` [Doxorubicin, reference compound] as the compound, how does the “selectivity between liver hepatocellular carcinoma cell and normal liver cell” value [8] read?
A: The value was “did not have selectivity”.

Q: For `S=C=NCc1ccccc1` [BITC, benzyl isothiocyanate], which GI50 [1, 18] is on record?
A: The GI50 was 9.58 µM.

Q: And the GI50 ([2]; MTS analysis)?
A: Its GI50 is 3.84 µM.

Q: And the “dose needed to have the inhibiting effect on cancer cells” value [9]?
A: The value was about 10 mM.

Q: For `CC(=O)N[C@@H](CS)C(=O)O` [NAC, N-acetylcysteine, reference compound], which “HBV-induced ROS increasement” value [10] is on record?
A: Its value is “significantly reduce”.

Q: For `CNC(=O)c1cc(Oc2ccc(NC(=O)Nc3ccc(Cl)c(C(F)(F)F)c3)cc2)ccn1` [Sorafenib], which GI50 [1, 18] is on record?
A: The GI50 was 2.34 µM.

Q: What about the GI50 ([2]; MTS analysis) of the same compound?
A: The GI50 was 3.58 µM.

Q: And the IC50 [4, 20]?
A: The IC50 was 7.89 µM.

Q: And the IC50 ([5]; read-out: The IC50 of Sorafenib, drug resistance-liver hepatocellular carcinoma cell line)?
A: Its IC50 is 10.9 µM.

Q: What about the IC50 ([6]; SNU-499, read-out: The IC50 of Sorafenib, drug resistance-liver hepatocellular carcinoma cell line) of the same compound?
A: Its IC50 is 14.2 µM.

Q: What about the IC50 [7, 20] of the same compound?
A: The IC50 was 3.8 µM.

Q: Which GI50 ([1]; SNU-449, read-out: GI50, SNU-449 liver hepatocellular carcinoma cell line) does the source give for `COc1ccc(CCN=C=S)cc1` [P1130] here?
A: Its GI50 is 0.64 µM.

Q: What about the “increase of the ability of inhibiting the growth of the liver hepatocellular carcinoma cell line” value ([1]; compared to natural isothiocyanate compounds BITC or PEITC) of the same compound?
A: The value was 12 times.

Q: And the GI50 [2]?
A: Its GI50 is 1.52 µM.

Q: And the “expression levels of cleaved caspase 8 and cleaved PARP” value [3]?
A: Its value is “significantly increased”.

Q: And the “expressions of ABCC2, Twist and Mcl-1” value [11]?
A: Its value is “inhibition”.

Q: What about the “expressions of ABCC2, Twist and Mcl-1” value [12] of the same compound?
A: Its value is “inhibition”.

Q: What about the “apoptosis of liver hepatocellular carcinoma cell line” value [13] of the same compound?
A: The value was “promote apoptosis”.

Q: And the “expressions of ABCC2, Mcl-1 and Twist” value [13]?
A: Its value is “inhibit the expressions”.

Q: What about the “apoptosis promotion and inhibition of ABCC2, Mcl-1, Twist in human normal liver cell line” value [14] of the same compound?
A: The value was “no such effect”.

Q: What about the “effect on drug resistance in liver hepatocellular carcinoma” value [15] of the same compound?
A: Its value is “reversing the drug resistance”.

Q: And the “expressions of USP22, ABCC1, ABCC2 and Twist” value [15]?
A: Its value is “decreased”.

Q: What about the “expressions of cleaved Caspase-8 and PARP” value [15] of the same compound?
A: The value was “increased”.

Q: And the LD50 [16]?
A: Its LD50 is 100 to 300 mg/kg.

Q: And the “toxicity relative to existing anticancer drug, e.g. Taxotere” value [17]?
A: Its value is “comparable”.
